Assay results as given in US20240350520A1, “Method to Stimulate the Growth of Veillonella in Human Gut and Increase Athletic Performance” (Mellitas Health Foods, LLC, priority 2023, published 2024).

Test system: Veillonella in human gut
Test: Veillonella level in human fecal samples by 16S rRNA sequencing before and after 2′-Fucosyllactose supplementation
Type: in vivo
Source text: The genus, Veillonella, were quantified through the fecal samples collected by the human subjects. 16S ribosomal RNA (rRNA) sequencing was used to quantify the relative abundance of Veillonella in the human fecal samples. Veillonella levels were expressed as a percentage of total gut bacteria. Veillonella levels were quantified before the supplementation of 2′-Fucosyllactose and also after the supplementation of 2′-Fucosyllactose. The human subjects were asked to take 2′-Fucosyllactose daily doses ranging from 2000 mg to 4500 mg for 20-60 days with liquid and not to change their regular diet during the period. Four healthy subjects were asked to test their fecal samples and determine the baseline level of Veillonella before taking the 2′-Fucosyllactose. After collecting their initial fecal samples, they were instructed to take 2′-Fucosyllactose daily at doses between 2000 mg-4500 mg per day with liquid and not change their regular diet. The subject was asked to stop the supplementation of 2′-Fucosyllactose after 20-60 days. The subjects were instructed to collect their fecal samples immediately after stopping the supplementation and the fecal samples were tested thereafter. The levels of Veillonella in the fecal samples were quantified by 16S ribosomal RNA (rRNA) sequencing.

2′-Fucosyllactose
level of Veillonella (percentage of total gut bacteria) after 2′-Fucosyllactose intake (average of 4 human subjects, fecal samples, oral 2000-4500 mg daily, 30-45 days, 0.018% before intake, P<0.05): 0.046% | change of the level of Veillonella in the human gut (daily dosages of 2000-4500 mg, after 20-60 days): significantly increased | change of the level of Veillonella in the gut (human subjects, supplementation for 30-45 days, FIG. 1): significantly increased
